Some targets named below: Substance-P receptor (Homo sapiens, UniProt P25103); Estrogen receptor beta (Homo sapiens, UniProt Q92731); D(1A) dopamine receptor (Homo sapiens, UniProt P21728).
For assay [1], the target named is T1, Histamine H1 receptor (Homo sapiens, UniProt P35367). In kind it is functional, cell-based.
Assay [2] concerns the target T1, Histamine H1 receptor. In kind it is functional, cell-based. This is another data set of the same source.
In assay [3] the target is T2, Peroxisome proliferator-activated receptor gamma (Homo sapiens, UniProt P37231).
T2 sequence (P37231 whole entry): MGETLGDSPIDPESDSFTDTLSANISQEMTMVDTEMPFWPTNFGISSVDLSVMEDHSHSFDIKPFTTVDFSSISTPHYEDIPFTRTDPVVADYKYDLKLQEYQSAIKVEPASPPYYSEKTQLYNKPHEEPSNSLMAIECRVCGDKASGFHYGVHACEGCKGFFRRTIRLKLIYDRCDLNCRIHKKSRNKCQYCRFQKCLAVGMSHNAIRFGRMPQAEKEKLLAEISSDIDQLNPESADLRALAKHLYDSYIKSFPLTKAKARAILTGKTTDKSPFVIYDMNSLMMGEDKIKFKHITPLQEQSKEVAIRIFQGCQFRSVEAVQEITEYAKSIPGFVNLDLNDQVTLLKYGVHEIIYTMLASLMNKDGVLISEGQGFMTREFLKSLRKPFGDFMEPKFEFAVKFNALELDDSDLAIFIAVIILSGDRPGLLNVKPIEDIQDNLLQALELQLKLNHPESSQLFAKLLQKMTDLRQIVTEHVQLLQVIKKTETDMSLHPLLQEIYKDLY
In kind it is functional.

In assay [4] the target is T3, Muscarinic acetylcholine receptor M4 (Homo sapiens, UniProt P08173).
T3 sequence (P08173 whole entry): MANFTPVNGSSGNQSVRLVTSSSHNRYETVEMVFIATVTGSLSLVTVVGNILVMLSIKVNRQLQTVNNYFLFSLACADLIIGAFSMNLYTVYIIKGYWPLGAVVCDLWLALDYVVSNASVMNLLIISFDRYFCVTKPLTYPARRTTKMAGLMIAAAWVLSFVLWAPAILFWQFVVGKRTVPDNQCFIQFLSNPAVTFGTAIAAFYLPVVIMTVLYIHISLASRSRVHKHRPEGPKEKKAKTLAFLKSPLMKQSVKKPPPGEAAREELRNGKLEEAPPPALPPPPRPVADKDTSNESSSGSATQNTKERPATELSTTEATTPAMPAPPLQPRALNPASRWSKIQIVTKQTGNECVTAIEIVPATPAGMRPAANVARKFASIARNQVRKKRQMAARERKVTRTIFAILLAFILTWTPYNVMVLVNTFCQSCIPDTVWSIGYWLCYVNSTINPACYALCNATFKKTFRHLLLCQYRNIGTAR

In another assay the target is Cannabinoid receptor 1 (Homo sapiens, UniProt P21554). In kind it is functional.
Assay [5] addresses 5-hydroxytryptamine receptor 6 (Homo sapiens, UniProt P50406).
The next assay addresses T4, D(4) dopamine receptor (Homo sapiens, UniProt P21917).
T4 sequence (P21917 whole entry): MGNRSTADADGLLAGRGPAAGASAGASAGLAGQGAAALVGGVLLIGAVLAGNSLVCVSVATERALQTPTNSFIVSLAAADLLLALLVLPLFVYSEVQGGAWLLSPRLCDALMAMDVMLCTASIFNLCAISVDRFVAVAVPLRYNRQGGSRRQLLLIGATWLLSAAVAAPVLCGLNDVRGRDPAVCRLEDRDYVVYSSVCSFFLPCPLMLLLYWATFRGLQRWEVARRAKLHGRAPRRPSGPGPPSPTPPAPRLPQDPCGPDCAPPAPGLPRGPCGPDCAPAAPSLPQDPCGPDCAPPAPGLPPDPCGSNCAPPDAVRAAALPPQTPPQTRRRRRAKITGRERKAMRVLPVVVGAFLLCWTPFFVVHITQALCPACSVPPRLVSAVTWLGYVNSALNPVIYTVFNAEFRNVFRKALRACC

Assay [6] concerns the target T5, Alpha-1A adrenergic receptor (Homo sapiens, UniProt P35348).
T5 sequence (P35348 whole entry): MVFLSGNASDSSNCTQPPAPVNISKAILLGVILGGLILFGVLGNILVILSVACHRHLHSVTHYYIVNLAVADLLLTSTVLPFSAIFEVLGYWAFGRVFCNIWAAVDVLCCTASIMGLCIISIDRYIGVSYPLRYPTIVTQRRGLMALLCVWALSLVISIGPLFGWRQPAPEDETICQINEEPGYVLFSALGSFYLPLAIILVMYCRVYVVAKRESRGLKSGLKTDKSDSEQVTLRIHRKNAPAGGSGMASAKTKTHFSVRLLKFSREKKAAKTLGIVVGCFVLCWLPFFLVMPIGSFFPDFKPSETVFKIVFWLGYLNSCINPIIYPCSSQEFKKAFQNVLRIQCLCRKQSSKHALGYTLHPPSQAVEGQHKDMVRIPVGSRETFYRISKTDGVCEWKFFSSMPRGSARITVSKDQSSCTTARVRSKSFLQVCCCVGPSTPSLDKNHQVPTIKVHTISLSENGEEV

Assay [7] has as its target Gamma-aminobutyric acid type B receptor subunit 1 (Homo sapiens, UniProt Q9UBS5).
In assay [8] the target is Voltage-dependent L-type calcium channel subunit alpha-1C (Homo sapiens, UniProt Q13936). Type of assay: functional, cell-based.
In assay [9] the target is Sodium channel protein type 5 subunit alpha (Homo sapiens, UniProt Q14524). Type of assay: functional, cell-based.
For assay [10], the target named is Hydroxycarboxylic acid receptor 2 (Homo sapiens, UniProt Q8TDS4).
Further: assay procedure not described here.

T1 sequence (P35367 whole entry): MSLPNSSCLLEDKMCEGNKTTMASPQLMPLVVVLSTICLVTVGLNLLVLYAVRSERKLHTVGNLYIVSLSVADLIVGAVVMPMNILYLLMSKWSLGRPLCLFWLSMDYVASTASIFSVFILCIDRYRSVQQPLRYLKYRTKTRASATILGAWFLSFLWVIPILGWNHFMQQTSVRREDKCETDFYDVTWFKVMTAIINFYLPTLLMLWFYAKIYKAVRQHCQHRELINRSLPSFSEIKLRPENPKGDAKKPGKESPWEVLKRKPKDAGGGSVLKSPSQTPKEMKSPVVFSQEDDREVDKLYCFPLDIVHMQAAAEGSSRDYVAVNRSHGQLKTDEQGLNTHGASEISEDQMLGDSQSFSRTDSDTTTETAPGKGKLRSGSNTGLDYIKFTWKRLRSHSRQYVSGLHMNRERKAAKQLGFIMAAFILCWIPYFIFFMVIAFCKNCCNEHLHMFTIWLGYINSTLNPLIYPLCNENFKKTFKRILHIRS
Substance-P receptor, sequence (P25103 whole entry): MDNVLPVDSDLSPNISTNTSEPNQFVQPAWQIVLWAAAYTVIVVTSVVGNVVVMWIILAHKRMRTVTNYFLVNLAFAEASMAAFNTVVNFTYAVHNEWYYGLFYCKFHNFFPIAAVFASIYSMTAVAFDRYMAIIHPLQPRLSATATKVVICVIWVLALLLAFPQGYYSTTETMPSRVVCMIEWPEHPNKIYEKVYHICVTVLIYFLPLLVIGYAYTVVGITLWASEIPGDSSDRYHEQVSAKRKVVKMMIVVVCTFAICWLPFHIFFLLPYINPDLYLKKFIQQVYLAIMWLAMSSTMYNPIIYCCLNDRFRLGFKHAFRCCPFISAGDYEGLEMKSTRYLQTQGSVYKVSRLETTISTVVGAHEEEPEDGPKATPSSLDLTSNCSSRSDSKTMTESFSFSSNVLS
Cannabinoid receptor 1, sequence (P21554 whole entry): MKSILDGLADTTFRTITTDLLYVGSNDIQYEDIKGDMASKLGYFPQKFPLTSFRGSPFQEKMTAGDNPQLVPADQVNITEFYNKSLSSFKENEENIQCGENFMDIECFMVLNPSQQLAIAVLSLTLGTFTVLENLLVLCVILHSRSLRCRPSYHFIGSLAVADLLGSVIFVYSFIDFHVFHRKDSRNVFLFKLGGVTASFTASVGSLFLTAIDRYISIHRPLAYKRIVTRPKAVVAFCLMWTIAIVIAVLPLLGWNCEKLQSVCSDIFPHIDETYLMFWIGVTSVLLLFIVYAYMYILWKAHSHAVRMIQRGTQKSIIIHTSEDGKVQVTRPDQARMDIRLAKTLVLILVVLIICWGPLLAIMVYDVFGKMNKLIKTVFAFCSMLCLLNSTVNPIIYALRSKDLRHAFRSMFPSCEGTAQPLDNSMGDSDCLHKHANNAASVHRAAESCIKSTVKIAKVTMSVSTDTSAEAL
Gamma-aminobutyric acid type B receptor subunit 1, sequence (Q9UBS5 whole entry): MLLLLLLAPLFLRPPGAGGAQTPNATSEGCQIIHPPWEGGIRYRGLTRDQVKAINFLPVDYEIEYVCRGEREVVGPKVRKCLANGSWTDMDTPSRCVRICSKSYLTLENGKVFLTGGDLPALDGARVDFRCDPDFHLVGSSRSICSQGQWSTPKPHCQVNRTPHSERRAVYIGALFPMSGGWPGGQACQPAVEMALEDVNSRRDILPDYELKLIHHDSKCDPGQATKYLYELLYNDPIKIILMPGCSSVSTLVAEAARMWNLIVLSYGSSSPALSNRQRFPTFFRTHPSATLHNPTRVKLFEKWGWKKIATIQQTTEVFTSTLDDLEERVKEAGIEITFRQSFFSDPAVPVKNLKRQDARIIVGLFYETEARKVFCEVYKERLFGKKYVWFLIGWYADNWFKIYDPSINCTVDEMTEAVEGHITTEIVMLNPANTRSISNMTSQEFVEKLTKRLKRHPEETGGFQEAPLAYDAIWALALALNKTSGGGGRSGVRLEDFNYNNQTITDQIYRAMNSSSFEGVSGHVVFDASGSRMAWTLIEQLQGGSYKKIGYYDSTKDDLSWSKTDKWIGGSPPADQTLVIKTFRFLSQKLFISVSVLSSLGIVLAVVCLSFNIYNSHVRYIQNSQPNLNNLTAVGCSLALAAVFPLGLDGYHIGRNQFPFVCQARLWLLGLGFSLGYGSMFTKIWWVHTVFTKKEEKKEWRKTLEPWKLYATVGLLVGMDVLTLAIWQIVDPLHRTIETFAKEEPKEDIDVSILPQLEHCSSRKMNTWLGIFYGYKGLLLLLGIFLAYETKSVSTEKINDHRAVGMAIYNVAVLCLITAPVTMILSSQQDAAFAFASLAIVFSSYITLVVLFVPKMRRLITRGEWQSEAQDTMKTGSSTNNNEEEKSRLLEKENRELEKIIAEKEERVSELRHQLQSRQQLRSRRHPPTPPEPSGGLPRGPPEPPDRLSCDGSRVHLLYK
Voltage-dependent L-type calcium channel subunit alpha-1C, sequence (Q13936 whole entry): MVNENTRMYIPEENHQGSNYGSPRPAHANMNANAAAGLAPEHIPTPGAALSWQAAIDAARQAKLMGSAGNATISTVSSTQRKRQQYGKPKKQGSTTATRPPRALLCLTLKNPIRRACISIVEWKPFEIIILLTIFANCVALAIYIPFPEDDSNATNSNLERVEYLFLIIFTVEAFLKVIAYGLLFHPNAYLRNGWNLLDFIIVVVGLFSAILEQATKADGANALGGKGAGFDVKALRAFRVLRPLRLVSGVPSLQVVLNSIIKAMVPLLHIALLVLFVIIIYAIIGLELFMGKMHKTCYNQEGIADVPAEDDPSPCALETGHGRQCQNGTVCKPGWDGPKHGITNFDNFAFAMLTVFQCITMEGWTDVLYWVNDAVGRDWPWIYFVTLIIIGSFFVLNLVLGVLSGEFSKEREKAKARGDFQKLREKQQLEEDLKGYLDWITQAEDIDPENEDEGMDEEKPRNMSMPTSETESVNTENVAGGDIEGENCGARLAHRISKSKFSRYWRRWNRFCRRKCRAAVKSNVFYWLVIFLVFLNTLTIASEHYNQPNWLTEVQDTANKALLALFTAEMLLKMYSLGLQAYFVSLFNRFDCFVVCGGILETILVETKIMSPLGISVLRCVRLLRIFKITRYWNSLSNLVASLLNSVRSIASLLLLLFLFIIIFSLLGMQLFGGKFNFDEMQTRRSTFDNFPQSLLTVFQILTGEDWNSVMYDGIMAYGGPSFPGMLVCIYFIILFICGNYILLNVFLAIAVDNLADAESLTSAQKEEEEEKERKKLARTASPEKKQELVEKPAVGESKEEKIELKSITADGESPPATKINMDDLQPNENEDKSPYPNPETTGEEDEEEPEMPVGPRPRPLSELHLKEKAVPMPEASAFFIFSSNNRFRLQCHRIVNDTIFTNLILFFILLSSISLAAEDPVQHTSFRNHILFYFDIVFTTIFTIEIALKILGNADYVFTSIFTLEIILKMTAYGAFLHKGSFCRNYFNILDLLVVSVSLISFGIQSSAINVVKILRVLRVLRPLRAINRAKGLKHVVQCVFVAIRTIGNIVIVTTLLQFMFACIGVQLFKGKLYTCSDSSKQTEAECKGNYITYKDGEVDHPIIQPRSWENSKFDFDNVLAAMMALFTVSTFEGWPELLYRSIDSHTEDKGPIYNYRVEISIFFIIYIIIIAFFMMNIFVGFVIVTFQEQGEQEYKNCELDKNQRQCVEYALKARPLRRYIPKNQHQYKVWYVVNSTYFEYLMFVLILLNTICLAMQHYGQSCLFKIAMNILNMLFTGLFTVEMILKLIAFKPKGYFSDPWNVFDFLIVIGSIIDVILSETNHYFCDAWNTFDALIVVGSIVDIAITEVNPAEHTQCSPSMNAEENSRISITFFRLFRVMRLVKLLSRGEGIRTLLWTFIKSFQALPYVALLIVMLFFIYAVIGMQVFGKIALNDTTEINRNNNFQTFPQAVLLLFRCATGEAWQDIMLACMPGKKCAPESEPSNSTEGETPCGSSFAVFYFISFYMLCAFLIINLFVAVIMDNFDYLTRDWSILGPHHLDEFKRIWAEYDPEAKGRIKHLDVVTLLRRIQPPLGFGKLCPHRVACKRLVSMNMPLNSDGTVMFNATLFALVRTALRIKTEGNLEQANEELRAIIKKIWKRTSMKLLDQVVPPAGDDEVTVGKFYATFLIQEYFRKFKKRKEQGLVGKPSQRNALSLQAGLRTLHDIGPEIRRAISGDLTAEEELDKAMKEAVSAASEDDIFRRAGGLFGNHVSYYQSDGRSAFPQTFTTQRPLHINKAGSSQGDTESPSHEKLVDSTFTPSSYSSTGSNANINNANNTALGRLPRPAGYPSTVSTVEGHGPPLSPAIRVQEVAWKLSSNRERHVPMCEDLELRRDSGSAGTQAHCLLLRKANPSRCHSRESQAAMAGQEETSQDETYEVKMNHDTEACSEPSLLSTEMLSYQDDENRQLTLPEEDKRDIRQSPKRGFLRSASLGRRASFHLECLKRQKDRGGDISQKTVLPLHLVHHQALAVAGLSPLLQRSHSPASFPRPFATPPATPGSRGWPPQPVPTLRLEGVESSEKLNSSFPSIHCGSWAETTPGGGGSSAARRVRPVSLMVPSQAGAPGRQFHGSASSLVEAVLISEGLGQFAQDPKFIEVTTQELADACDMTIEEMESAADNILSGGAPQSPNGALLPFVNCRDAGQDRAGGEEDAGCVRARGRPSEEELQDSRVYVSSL
D(1A) dopamine receptor, sequence (P21728 whole entry): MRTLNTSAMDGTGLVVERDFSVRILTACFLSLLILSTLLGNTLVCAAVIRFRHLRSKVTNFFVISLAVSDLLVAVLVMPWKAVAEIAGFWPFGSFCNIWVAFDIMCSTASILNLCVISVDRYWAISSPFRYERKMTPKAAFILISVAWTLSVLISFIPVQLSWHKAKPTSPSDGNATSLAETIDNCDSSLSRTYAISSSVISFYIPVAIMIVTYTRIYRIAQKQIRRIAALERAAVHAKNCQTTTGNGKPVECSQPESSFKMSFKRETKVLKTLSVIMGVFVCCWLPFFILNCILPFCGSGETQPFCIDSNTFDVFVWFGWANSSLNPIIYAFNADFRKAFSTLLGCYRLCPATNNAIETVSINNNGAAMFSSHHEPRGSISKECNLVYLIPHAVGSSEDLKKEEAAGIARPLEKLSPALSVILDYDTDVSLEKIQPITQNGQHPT

As to `CCCCCCC(C)(C)c1cc(O)c2c(c1)OC(C)(C)C1CCC(=O)CC21` (configuration not stated) [NABILONE], the AC50 (at Histamine H1 receptor [1]; on Histamine H1 receptor [2]; in assay [3]) was over 30 µM in each case.

In the case of `O=C(O)CCCc1ccccc1` [PHENYLBUTANOIC ACID], the AC50 (in assay [4]; at Cannabinoid receptor 1; in [5]; on Substance-P receptor; on D(4) dopamine receptor; in assay [6]) was over 10 µM each time. Moreover, the AC50 in [7] was over 10 µM; on Estrogen receptor beta it was over 30 µM.

For the compound `O=C1NCCN1CCN1CCC(c2cn(-c3ccc(F)cc3)c3ccc(Cl)cc23)CC1` [SERTINDOLE], the AC50 was over 50 µM in [8] and 21 µM in assay [9].

`O=C1CN=C(c2ccccc2)c2cc(Cl)ccc2N1CC(F)(F)F` [HALAZEPAM]: the AC50 (at Histamine H1 receptor [1]; on Histamine H1 receptor [2]; in [3]) was over 30 µM in each case.

Turning to `CCCCCN(C)CCC(O)(P(=O)(O)O)P(=O)(O)O` [IBANDRONIC ACID], the AC50 (at Cannabinoid receptor 1; in assay [5]; on D(1A) dopamine receptor; on Substance-P receptor; on D(4) dopamine receptor; in [6]) was over 10 µM each time. At Estrogen receptor beta, this compound displayed an AC50 of over 30 µM.

Turning to `CCCCOc1cc(C(=O)NCCN(CC)CC)c2ccccc2n1` [DIBUCAINE], the AC50 in assay [8] was 22 µM; in assay [9] it was 1.8 µM.

In the case of `CCCCC(C)(O)C/C=C/[C@H]1[C@H](O)CC(=O)[C@@H]1CCCCCCC(=O)OC` (some centres not stated) [MISOPROSTOL], the AC50 on Histamine H1 receptor [1] and on Histamine H1 receptor [2] was over 30 µM in each case.

Regarding `COc1ccc(C(=O)N2CCN(c3ccc4c(c3)CCC(=O)N4)CC2)cc1OC` [VESNARINONE], the AC50 at Histamine H1 receptor [1] and at Histamine H1 receptor [2] was over 30 µM in each case.

`Cc1c(C(=O)Nc2ccc(N3C[C@@H](C)O[C@@H](C)C3)nc2)cccc1-c1ccc(OC(F)(F)F)cc1` [SONIDEGIB]: the AC50 on D(1A) dopamine receptor is over 10 µM; at Substance-P receptor it was over 10 µM; at D(4) dopamine receptor, over 10 µM; in assay [6], over 10 µM; at Estrogen receptor beta, over 30 µM.

Consider `COC(=O)C1=C(C)NC(C)=C(C(=O)OC(C)C)C1c1cccc2nonc12` (configuration not stated) [ISRADIPINE], for which the AC50 in assay [9] was 2.98 µM.

Take `CC/C=C\C/C=C\C/C=C\CCCCCCCC(=O)O` [LINOLENIC ACID]: the AC50 on Histamine H1 receptor [1] and on Histamine H1 receptor [2] was over 30 µM in each case.

`CN1CCc2cccc3c2[C@H]1Cc1ccc(O)c(O)c1-3` [APOMORPHINE]: the AC50 at Estrogen receptor beta is over 30 µM.

As to `C=C1CC[C@@]2(O)[C@H]3Cc4ccc(O)c5c4[C@@]2(CCN3CC2CC2)[C@H]1O5`, the AC50 at Histamine H1 receptor [1] and at Histamine H1 receptor [2] was over 30 µM each time.

With `CN[C@@H](C)[C@H](O)c1ccccc1` [EPHEDRINE], the AC50 in [9] was over 30 µM; at D(1A) dopamine receptor, over 10 µM; in assay [10], over 10 µM; at Substance-P receptor, over 10 µM; at D(4) dopamine receptor, over 10 µM; in [6], over 10 µM. At Estrogen receptor beta, this compound had an AC50 of over 30 µM.

As for `[H]/N=C(/N)c1ccc(NCc2nc3cc(C(=O)N(CCC(=O)O)c4ccccn4)ccc3n2C)cc1` [DABIGATRAN], the AC50 in [9] and in assay [3] was over 30 µM in each case.

For `CCNC(C)Cc1cccc(C(F)(F)F)c1` (configuration not stated) [FENFLURAMINE], the AC50 (on Substance-P receptor; in assay [7]) was over 10 µM in each case.

In assay [3], `CCCCCOC(=O)Nc1nc(=O)n([C@@H]2O[C@H](C)[C@@H](O)[C@H]2O)cc1F` [CAPECITABINE] displayed an AC50 of over 30 µM.

As to `Cc1cc(-c2ccccc2)nnc1NCCN1CCOCC1` [MINAPRINE], the AC50 was over 10 µM on D(1A) dopamine receptor; over 10 µM in [10]; over 10 µM at Substance-P receptor; over 10 µM on D(4) dopamine receptor; over 10 µM in [6]; over 30 µM at Estrogen receptor beta.

Regarding `CCCOc1ccc(C(=O)OCCN(CC)CC)cc1N` [PROPARACAINE], the AC50 in assay [3] was over 30 µM.

Consider `CN1CCN(C(=O)OC2c3nccnc3C(=O)N2c2ccc(Cl)cn2)CC1` (configuration not stated) [ZOPICLONE], for which the AC50 is over 10 µM at Cannabinoid receptor 1; over 10 µM in assay [5]; over 10 µM at D(1A) dopamine receptor; over 10 µM at D(4) dopamine receptor; over 10 µM in assay [6]; over 30 µM on Estrogen receptor beta. The AC50 in [3] is over 30 µM.

`Nc1ncnc2c1ncn2[C@@H]1O[C@H](COP(=O)(O)O)[C@@H](O)[C@H]1O` [ADENOSINE PHOSPHATE]: the AC50 on Histamine H1 receptor [1] and at Histamine H1 receptor [2] was over 30 µM throughout.

In the case of `COc1ccc2cccc(CCNC(C)=O)c2c1` [AGOMELATINE], the concentration at half-maximal activity (AC50) on D(1A) dopamine receptor was over 10 µM; in assay [10], over 10 µM; on Substance-P receptor it was over 10 µM; on D(4) dopamine receptor, over 10 µM; in [6], over 10 µM; at Estrogen receptor beta, over 30 µM.

In [7], `CC(C)c1c(C(=O)Nc2ccccc2)c(-c2ccccc2)c(-c2ccc(F)cc2)n1CC[C@@H](O)C[C@@H](O)CC(=O)O` [ATORVASTATIN] gave an AC50 of over 10 µM.

The compound `CC(C)(Oc1ccc(C2CC2(Cl)Cl)cc1)C(=O)O` (configuration not stated) [CIPROFIBRATE] displayed an AC50 in [3] of over 30 µM.

Consider `Nc1nc2ccc(OC(F)(F)F)cc2s1` [RILUZOLE], for which the values for the AC50 in assay [8] and in assay [3] were over 50 µM and over 30 µM, respectively.

`Cc1cccc(C)c1NC(=O)C1CCCCN1C` (configuration not stated) [MEPIVACAINE] returned an AC50 in assay [3] of over 30 µM.

On to `CC(Cc1ccccc1)NCCC(c1ccccc1)c1ccccc1` (configuration not stated) [PRENYLAMINE], for which the AC50 in [8] is 47 µM; in [9], 7.1 µM.

With `C[C@H]1C[C@@H]2[C@H]([C@@H](O)C[C@@]3(C)[C@H]2CC[C@]3(O)C(=O)COC(=O)CCC(=O)O)[C@@]2(C)C=CC(=O)C=C12` [METHYLPREDNISOLONE HEMISUCCINATE], the AC50 (at Histamine H1 receptor [1]; at Histamine H1 receptor [2]; in assay [3]) was over 30 µM each time.

In the case of `NC(CO)C(=O)NNCc1ccc(O)c(O)c1O` (configuration not stated) [BENSERAZIDE], the AC50 at D(1A) dopamine receptor is over 10 µM; at Histamine H1 receptor [1] it was over 30 µM; on Histamine H1 receptor [2], over 30 µM.

Broadly, the AC50 is the midpoint of the concentration-response curve, whichever way the signal moves.

The values above are taken from ChEMBL document CHEMBL5291721, “A preclinical secondary pharmacology resource illuminates target-adverse drug reaction associations of marketed drugs” (Nat Commun, 2023).
